Data from paper PMC12647759 (Scientific Reports, 2025).

Assays:
PLC = conditions: cited from earlier work
SW480 cells = assay: Tumour xenograft of SW480 cells in nude mice; type: in vivo; conditions: i.p. 3 days per week for 3 weeks, ZPT 2.5, 5 or 10 mg/kg, dipyrithione 5 mg/kg
Experimental: (§1) Tumour xenograft experiments were performed as previously described. Briefly, SW480 or Caco2 cells (5 × 10^6 cells each) were implanted subcutaneously into the right flanks of female athymic nude (nu/nu) mice (6–8 weeks old, CLEA Japan). One week later, the mice were administered intraperitoneally with ZPT, dipyrithione or the vehicle 3 days per week for 3 or 8 weeks, respectively, during which the volumes (V) of the tumours, calculated by the following formula: V = A × B^2/2 (A: the largest diameter, B: the perpendicular diameter), and the body weight were monitored every 7 days. Thereafter, tumours of the SW480-grafted mice were dissected, weighed, fixed in 4% paraformaldehyde, embedded in paraffin and serially sectioned. The Sect. (10-µm thick) were subjected to immunohistochemical detection of phosphorylated PKD by using anti-phospho-PKD antibody and HISTMOUSE-PLUS Kit (ZYMED Lab., Carlsbad, CA) according to the manufacturer’s protocol.

[1] = test system: intestinal tumours of Apc^Min/+ mice; assay: Intestinal tumourigenesis of Apc^Min/+ mice; type: in vivo; conditions: i.p. 3 days per week for 11 weeks, ZPT 2.5 or 5 mg/kg, dipyrithione 5 mg/kg
Experimental: Five weeks-old Apc^Min/+ mice were administered intraperitoneally with ZPT, dipyrithione or the vehicle 3 days per week for 11 weeks. Thereafter, the mice were sacrificed and the whole small intestines were excised, rolled up in a ‘Swiss roll’ configuration, embedded in OCT compound and longitudinally sectioned at the 10-µm thickness. One section in the middle position of each intestine was subjected to H&E staining after fixation with 4% PFA, and tumours in the whole section were classified under microscope into hyperplasias, low-grade adenomas, high-grade adenomas and adenocarcinomas according to the histopathological criteria recommended for the study of mouse models of intestinal cancer. The classification was conducted by a pathologist at Pathology Analysis Center (Kanagawa, Japan) under the blind condition regarding the compound administration.

human PLCε = target: T1, human PLCε (Homo sapiens, UniProt Q9P212); assay: In vitro PLC assay using fluorogenic substrate Compound 1 (HTS), PLCε; type: biochemical; conditions: Compound 1 as substrate, varying concentrations
T1 construct: expressing the full-length polypeptides of human PLCε, PLCβ4, PLCδ1 and PLCγ1 as FLAG fusions; made in house; host or cells: Expi293F cells
T1 sequence (Q9P212 whole entry, the tested form may be a part): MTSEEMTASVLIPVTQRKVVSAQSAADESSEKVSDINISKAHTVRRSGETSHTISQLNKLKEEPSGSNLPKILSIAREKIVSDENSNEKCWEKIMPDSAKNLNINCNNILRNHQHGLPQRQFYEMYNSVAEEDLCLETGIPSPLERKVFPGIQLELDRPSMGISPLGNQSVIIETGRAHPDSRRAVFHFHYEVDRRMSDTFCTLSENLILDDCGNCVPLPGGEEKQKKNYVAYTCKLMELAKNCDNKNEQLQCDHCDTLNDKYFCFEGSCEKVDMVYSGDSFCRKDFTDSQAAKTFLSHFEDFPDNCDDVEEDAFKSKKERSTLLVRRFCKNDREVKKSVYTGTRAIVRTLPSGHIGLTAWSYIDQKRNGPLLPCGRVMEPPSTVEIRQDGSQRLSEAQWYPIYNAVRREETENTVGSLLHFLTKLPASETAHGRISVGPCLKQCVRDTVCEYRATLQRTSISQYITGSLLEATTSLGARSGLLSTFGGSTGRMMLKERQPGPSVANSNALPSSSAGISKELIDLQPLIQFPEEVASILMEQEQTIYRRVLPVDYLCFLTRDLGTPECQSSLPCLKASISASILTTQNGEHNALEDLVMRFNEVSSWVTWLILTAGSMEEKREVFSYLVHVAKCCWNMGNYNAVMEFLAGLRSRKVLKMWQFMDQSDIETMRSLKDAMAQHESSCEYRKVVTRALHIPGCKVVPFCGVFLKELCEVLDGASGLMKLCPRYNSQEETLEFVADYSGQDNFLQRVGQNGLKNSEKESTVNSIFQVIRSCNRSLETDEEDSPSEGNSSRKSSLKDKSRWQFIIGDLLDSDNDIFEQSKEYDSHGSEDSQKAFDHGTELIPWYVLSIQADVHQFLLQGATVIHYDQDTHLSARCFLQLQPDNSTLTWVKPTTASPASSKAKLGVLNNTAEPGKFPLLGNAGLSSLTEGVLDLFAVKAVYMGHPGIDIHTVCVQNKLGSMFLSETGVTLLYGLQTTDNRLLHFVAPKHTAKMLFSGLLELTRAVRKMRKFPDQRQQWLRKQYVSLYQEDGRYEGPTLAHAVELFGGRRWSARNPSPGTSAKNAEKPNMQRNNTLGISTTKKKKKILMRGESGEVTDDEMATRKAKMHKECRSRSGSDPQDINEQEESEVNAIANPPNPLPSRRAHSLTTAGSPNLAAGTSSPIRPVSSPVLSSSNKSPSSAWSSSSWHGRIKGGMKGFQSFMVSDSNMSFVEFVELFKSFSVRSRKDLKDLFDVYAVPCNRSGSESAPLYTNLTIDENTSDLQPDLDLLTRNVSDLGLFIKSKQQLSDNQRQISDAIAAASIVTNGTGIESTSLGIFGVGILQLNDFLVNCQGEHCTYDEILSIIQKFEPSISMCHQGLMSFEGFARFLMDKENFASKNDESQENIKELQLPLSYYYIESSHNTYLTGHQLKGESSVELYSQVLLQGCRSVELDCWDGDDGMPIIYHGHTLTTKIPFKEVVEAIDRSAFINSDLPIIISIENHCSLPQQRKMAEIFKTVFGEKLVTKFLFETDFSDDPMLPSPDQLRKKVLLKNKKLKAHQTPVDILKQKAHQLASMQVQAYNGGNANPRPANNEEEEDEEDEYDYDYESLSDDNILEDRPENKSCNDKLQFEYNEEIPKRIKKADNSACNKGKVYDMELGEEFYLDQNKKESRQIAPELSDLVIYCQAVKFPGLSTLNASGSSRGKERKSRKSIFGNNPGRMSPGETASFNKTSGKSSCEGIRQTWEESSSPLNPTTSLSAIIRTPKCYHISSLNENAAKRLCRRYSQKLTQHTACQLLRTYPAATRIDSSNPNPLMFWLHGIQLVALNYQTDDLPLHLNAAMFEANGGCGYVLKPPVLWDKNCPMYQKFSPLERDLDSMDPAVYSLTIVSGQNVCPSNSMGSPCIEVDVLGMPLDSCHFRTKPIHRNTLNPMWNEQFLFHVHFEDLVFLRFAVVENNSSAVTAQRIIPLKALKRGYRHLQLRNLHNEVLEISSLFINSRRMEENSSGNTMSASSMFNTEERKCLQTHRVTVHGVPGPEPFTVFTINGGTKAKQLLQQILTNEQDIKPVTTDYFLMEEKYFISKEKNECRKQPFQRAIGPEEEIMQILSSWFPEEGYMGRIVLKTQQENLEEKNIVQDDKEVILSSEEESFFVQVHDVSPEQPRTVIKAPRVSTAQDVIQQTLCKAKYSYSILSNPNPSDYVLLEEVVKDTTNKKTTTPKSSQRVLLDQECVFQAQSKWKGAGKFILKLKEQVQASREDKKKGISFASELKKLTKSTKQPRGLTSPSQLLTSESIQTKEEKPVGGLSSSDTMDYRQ
Experimental: For measuring inhibition by compounds for HTS, the reactions were conducted at RIKEN Center for Sustainable Resource Science (CSRS) as described above except that 5 µl of compound solution and 5 µl of purified PLCe (120 ng) were added to each well. […] For determination of the IC50 values for ZPT and Zn^2+, the EDTA concentration was reduced to one-tenth to avoid its zinc-chelating effect. For assay of the other PLC classes, the reactions were performed similarly except that PLCβ4 (5 ng), PLCδ1 (0.1 ng) or PLCγ1 (0.3 ng) was used instead of PLCε.

Caco2 cells [2] = assay: Tumour xenograft of Caco2 cells in nude mice; type: in vivo; conditions: i.p. 3 days per week for 8 weeks, ZPT 2.5, 5 or 10 mg/kg, dipyrithione 5 mg/kg
Experimental: as §1

[3] = test system: DSS-induced inflammatory colitis; assay: DSS-induced inflammatory colitis; type: in vivo, mice; conditions: 2.5% DSS 7 days; i.p. once a day, ZPT 2.5, 5 or 10 mg/kg, dipyrithione 10 mg/kg
Experimental: To induce inflammatory colitis, 10 weeks-old C57BL/6JJc1 mice were allowed to take drinking water containing 2.5% (w/v) DSS (molecular weight 36,000 ~ 50,000; Wako Pure Chemical, Osaka, Japan) ad libitum for 7 days[9],[30]. During this period, they were administered intraperitoneally with ZPT, dipyrithione or a vehicle (0.5% carboxymethyl cellulose and 0.9% NaCl) once a day. Thereafter, their colons were excised, washed with PBS, dissected longitudinally, fixed in 4% paraformaldehyde (PFA), embedded in paraffin and serially sectioned as described. The Sect. (10-µm thick) were subjected to H&E staining. Images were taken with an Olympus FSX100 microscope and Olympus FSX100-BSW software. The severity of inflammatory colitis was also assessed by measuring the body weight loss and the colon length shortening.

SW620 cells = assay: Experimental lung metastasis of SW620 cells in nude mice; type: in vivo; conditions: i.p. twice, one week before and after cell injection, ZPT 2.5 or 5 mg/kg, dipyrithione 5 mg/kg
Experimental: Female nude mice (6–8 weeks old) were injected with SW620 cells (1 × 10^7 cells) suspended in 200 µl L-15 medium via tail vein and maintained for further 8 weeks. ZPT, dipyrithione or the vehicle was administered intraperitoneally to the mice twice, 1 week before and after the cell injection. Thereafter, the mice were sacrificed, and their lungs were excised, fixed in 4% PFA, embedded in paraffin and serially sectioned. The Sect. (10-µm thick) were subjected to H&E staining. For histologic evaluation of lung micro-metastasis, the number of micro-metastatic nodules in 3 non-contiguous lung sections from each mouse was counted under a light microscope as described previously.

Caco2 cells [4] = assay: Determination of intracellular zinc concentration with Zinquin ethyl ester; type: cell-based, human; conditions: 5 µM sodium pyrithione added to 5 µM ZnSO4, 30 min
Experimental: Confluent Caco2 cells in a Φ10-cm culture dish were subjected to serum starvation overnight and incubated with 10 µM MG132 for 30 min. […] The cells were harvested by trypsinization, washed with PBS and suspended at the density of 5 × 10^6 cells/ml in Hanks’ balanced salt solution (HBSS). After the addition of 1 mg/ml Zinquin ethyl ester (Dojindo Laboratories, Kumamoto, Japan)[27] dissolved in DMSO at the final concentration of 25 µM, the cell suspension was incubated at 37 °C for 30 min. Subsequently, the cells were washed three times with HBSS, suspended in HBSS at the density of 5 × 10^6 cells/ml and subjected to measurement of the fluorescence emission at 490 nm with the excitation at 370 nm by POLARstar Omega-25.

Row | SMILES | inhibition of PLC catalytic activity in vitro (PLC) | growth of grafted cells (tumour volume) (SW480 cells) | ratio of high-grade adenomas / progression of low-grade to high-grade adenomas [1] | inhibition of PLCε (human PLCε) | growth of grafted cells (tumour volume) (Caco2 cells [2]) | body weight loss [3] | colon length shortening [3] | histology: erosion of the mucosa, swelling of the submucosa and leukocyte infiltration [3] | numbers of micro-metastatic nodules in lung sections (SW620 cells) | increase in intracellular Zn^2+ concentration (Caco2 cells [4])
1 | COc1ccc2c(c1)CC[C@@H]1[C@@H]2CC[C@]2(C)[C@@H](NCCCCCCN3C(=O)C=CC3=O)CC[C@@H]12 [U73122] | failed to inhibit PLC catalytic activity in vitro | – | – | – | – | – | – | – | – | –
2 | [O-][n+]1ccccc1SSc1cccc[n+]1[O-] [dipyrithione] | – | not | appeared to accelerate the progression of low-grade adenomas to high-grade adenomas | failed to inhibit PLCε | not | failed to alleviate | failed to alleviate | failed to alleviate | exhibited no effect | –
3 | On1ccccc1=S [sodium pyrithione] | – | – | – | failed to inhibit PLCε | – | – | – | – | – | 8.78 fold
